Laboratory results as given in ChEMBL document CHEMBL3817807, “Sequence-specific DNA binding by long hairpin pyrrole-imidazole polyamides containing an 8-amino-3,6-dioxaoctanoic acid unit” (Bioorg Med Chem, 2016).
In brackets after ≈: the same amount, converted by molar mass. Activity calls are given as the source filed them. The rule behind the calls is not given here.

Tests used:
[1] = Binding affinity to TGGCAGACA oligonucleotide DNA sequence (unknown origin) at 50 nM incubated for 16 hrs by PCR based Bind-n-Seq analysis
[2] = Binding affinity to TAGTCGGCC oligonucleotide DNA sequence (unknown origin) at 50 nM incubated for 16 hrs by PCR based Bind-n-Seq analysis
[3] = Binding affinity to TGGCAGACT oligonucleotide DNA sequence (unknown origin) at 50 nM incubated for 16 hrs by PCR based Bind-n-Seq analysis
[4] = Binding affinity to TTGTCGGCC oligonucleotide DNA sequence (unknown origin) at 50 nM incubated for 16 hrs by PCR based Bind-n-Seq analysis
[5] = Binding affinity to ATGTCTGCC oligonucleotide DNA sequence (unknown origin) at 50 nM incubated for 16 hrs by PCR based Bind-n-Seq analysis
[6] = Binding affinity to AGGCAGACT oligonucleotide DNA sequence (unknown origin) at 50 nM incubated for 16 hrs by PCR based Bind-n-Seq analysis
[7] = Binding affinity to TGTCAGCCT oligonucleotide DNA sequence (unknown origin) at 50 nM incubated for 16 hrs by PCR based Bind-n-Seq analysis
[8] = Binding affinity to AGTCGGCCT oligonucleotide DNA sequence (unknown origin) at 50 nM incubated for 16 hrs by PCR based Bind-n-Seq analysis
[9] = Binding affinity to AGTCTGCCT oligonucleotide DNA sequence (unknown origin) at 50 nM incubated for 16 hrs by PCR based Bind-n-Seq analysis
[10] = Binding affinity to AGTCAGCCT oligonucleotide DNA sequence (unknown origin) at 50 nM incubated for 16 hrs by PCR based Bind-n-Seq analysis
[11] = Binding affinity to 5'-biotin labeled GCGAGGCAGACACGCTTTTGCGTGTCTGCCTCGC-3' DNA (unknown origin) assessed as association rate by SPR analysis
[12] = Binding affinity to 5'-biotin labeled GCGAGGCAGACACGCTTTTGCGTGTCTGCCTCGC-3' DNA (unknown origin) by SPR analysis
[13] = Aqueous solubility of the compound […] assessed as saturation concentration by nanodrop analysis; type: physicochemical
[14] = Binding affinity to 5'-biotin labeled GCGAGGCAGACACGCTTTTGCGTGTCTGCCTCGC-3' DNA (unknown origin) assessed as dissociation rate by SPR analysis
[15] = Binding affinity to TGGCTAACA oligonucleotide DNA sequence (unknown origin) at 50 nM incubated for 16 hrs by PCR based Bind-n-Seq analysis
[16] = Binding affinity to AGGCTGATA oligonucleotide DNA sequence (unknown origin) at 50 nM incubated for 16 hrs by PCR based Bind-n-Seq analysis
[17] = Binding affinity to AGACAGTCA oligonucleotide DNA sequence (unknown origin) at 50 nM incubated for 16 hrs by PCR based Bind-n-Seq analysis
[18] = Binding affinity to AGGCAGACA oligonucleotide DNA sequence (unknown origin) at 50 nM incubated for 16 hrs by PCR based Bind-n-Seq analysis
[19] = Binding affinity to AGGCTTACA oligonucleotide DNA sequence (unknown origin) at 50 nM incubated for 16 hrs by PCR based Bind-n-Seq analysis
[20] = Binding affinity to ATGCAGTCA oligonucleotide DNA sequence (unknown origin) at 50 nM incubated for 16 hrs by PCR based Bind-n-Seq analysis
[21] = Binding affinity to TGGTAGACA oligonucleotide DNA sequence (unknown origin) at 50 nM incubated for 16 hrs by PCR based Bind-n-Seq analysis
[22] = Binding affinity to CGGCTAACA oligonucleotide DNA sequence (unknown origin) at 50 nM incubated for 16 hrs by PCR based Bind-n-Seq analysis
[23] = Binding affinity to AGACTGACA oligonucleotide DNA sequence (unknown origin) at 50 nM incubated for 16 hrs by PCR based Bind-n-Seq analysis
[24] = Binding affinity to ATGCAGACA oligonucleotide DNA sequence (unknown origin) at 50 nM incubated for 16 hrs by PCR based Bind-n-Seq analysis
[25] = Binding affinity to GAGTCTCCC oligonucleotide DNA sequence (unknown origin) at 50 nM incubated for 16 hrs by PCR based Bind-n-Seq analysis
[26] = Binding affinity to CTCTCTGCA oligonucleotide DNA sequence (unknown origin) at 50 nM incubated for 16 hrs by PCR based Bind-n-Seq analysis
[27] = Binding affinity to GTCTCCGAA oligonucleotide DNA sequence (unknown origin) at 50 nM incubated for 16 hrs by PCR based Bind-n-Seq analysis
[28] = Binding affinity to AGGCTCTCA oligonucleotide DNA sequence (unknown origin) at 50 nM incubated for 16 hrs by PCR based Bind-n-Seq analysis
[29] = Binding affinity to ATCGGCAGA oligonucleotide DNA sequence (unknown origin) at 50 nM incubated for 16 hrs by PCR based Bind-n-Seq analysis
[30] = Binding affinity to GGGCTAGAC oligonucleotide DNA sequence (unknown origin) at 50 nM incubated for 16 hrs by PCR based Bind-n-Seq analysis
[31] = Binding affinity to ACAGCCTCG oligonucleotide DNA sequence (unknown origin) at 50 nM incubated for 16 hrs by PCR based Bind-n-Seq analysis
[32] = Binding affinity to AATTTACCT oligonucleotide DNA sequence (unknown origin) at 50 nM incubated for 16 hrs by PCR based Bind-n-Seq analysis
[33] = Binding affinity to GGGCAGTCA oligonucleotide DNA sequence (unknown origin) at 50 nM incubated for 16 hrs by PCR based Bind-n-Seq analysis
[34] = Binding affinity to GTGAGCCTA oligonucleotide DNA sequence (unknown origin) at 50 nM incubated for 16 hrs by PCR based Bind-n-Seq analysis
[35] = Drug uptake in human MDA-MB-231 cell nucleus at 10 uM after 72 hrs by FITC/Hoechst 33342-staining based confocal microscopic analysis; type: ADME; conditions: mda-mb-231, 72 h

Q: Which results are given for `CC(=O)Nc1cn(C)c(C(=O)Nc2cn(C)c(C(=O)NCCOCCOCC(=O)Nc3cn(C)c(C(=O)Nc4cc(C(=O)Nc5cc(C(=O)NCCCC(=O)Nc6cn(C)c(C(=O)Nc7cc(C(=O)NCCOCCOCC(=O)Nc8cn(C)c(C(=O)Nc9cc(C(=O)Nc%10cc(C(=O)NCCC(=O)NCCCN(C)CCCNC(=O)CCOCCOCCOCCOCCOCCOCCOCCOCCOCCOCCOCCOCCNC(=O)CCCC[C@@H]%11SC[C@@H]%12NC(=O)N[C@@H]%12%11)n(C)c%10)n(C)c9)n8)n(C)c7)n6)n(C)c5)n(C)c4)n3)n2)n1`?
A: Activity [1]: Active; Activity [2]: Active; Activity [3]: Active; Activity [4]: Active; Activity [5]: Active; Activity [6]: Active; Activity [7]: Active; Activity [8]: Active; Activity [9]: Active; Activity [10]: Active

Q: Which Ka [11] does the source give for `CC(=O)Nc1cn(C)c(C(=O)Nc2cn(C)c(C(=O)Nc3cc(C(=O)NCCC(=O)Nc4cn(C)c(C(=O)Nc5cc(C(=O)Nc6cc(C(=O)NCCCC(=O)Nc7cn(C)c(C(=O)Nc8cc(C(=O)Nc9cc(C(=O)NCCC(=O)Nc%10cn(C)c(C(=O)Nc%11cc(C(=O)Nc%12cc(C(=O)NCCC(=O)NCCCN(C)CCCN)n(C)c%12)n(C)c%11)n%10)n(C)c9)n(C)c8)n7)n(C)c6)n(C)c5)n4)n(C)c3)n2)n1` here?
A: 2.4 ×10⁵ /Ms

Q: What about the Kd [12] of the same compound?
A: 5.9 nM

Q: And the solubility [13]?
A: 9.1 mM (≈ 17.8 mg/mL)

Q: What about the Kd [14] of the same compound?
A: 1.4 ×10⁻³ /s

Q: What does the source list for `CC(=O)Nc1cn(C)c(C(=O)Nc2cn(C)c(C(=O)Nc3cc(C(=O)NCCC(=O)Nc4cn(C)c(C(=O)Nc5cc(C(=O)Nc6cc(C(=O)NCCCC(=O)Nc7cn(C)c(C(=O)Nc8cc(C(=O)Nc9cc(C(=O)NCCC(=O)Nc%10cn(C)c(C(=O)Nc%11cc(C(=O)Nc%12cc(C(=O)NCCC(=O)NCCCN(C)CCCNC(=O)CCOCCOCCOCCOCCOCCOCCOCCOCCOCCOCCOCCOCCNC(=O)CCCC[C@@H]%13SC[C@@H]%14NC(=O)N[C@@H]%14%13)n(C)c%12)n(C)c%11)n%10)n(C)c9)n(C)c8)n7)n(C)c6)n(C)c5)n4)n(C)c3)n2)n1`?
A: Activity [15]: Active; Activity [16]: Active; Activity [17]: Active; Activity [18]: Active; Activity [19]: Active; Activity [20]: Active; Activity [21]: Active; Activity [22]: Active; Activity [23]: Active; Activity [24]: Active

Q: Which results are given for `CC(=O)Nc1cn(C)c(C(=O)Nc2cn(C)c(C(=O)NCCC(=O)NCCC(=O)Nc3cn(C)c(C(=O)Nc4cc(C(=O)Nc5cc(C(=O)NCCCC(=O)Nc6cn(C)c(C(=O)Nc7cc(C(=O)Nc8cc(C(=O)NCCC(=O)Nc9cn(C)c(C(=O)Nc%10cc(C(=O)Nc%11cc(C(=O)NCCC(=O)NCCCN(C)CCCNC(=O)CCOCCOCCOCCOCCOCCOCCOCCOCCOCCOCCOCCOCCNC(=O)CCCC[C@@H]%12SC[C@@H]%13NC(=O)N[C@@H]%13%12)n(C)c%11)n(C)c%10)n9)n(C)c8)n(C)c7)n6)n(C)c5)n(C)c4)n3)n2)n1`?
A: Activity [25]: Active; Activity [26]: Active; Activity [27]: Active; Activity [28]: Active; Activity [29]: Active; Activity [30]: Active; Activity [31]: Active; Activity [32]: Active; Activity [33]: Active; Activity [34]: Active

Q: Which Drug uptake [35] does the source give for `CC(=O)Nc1cn(C)c(C(=O)Nc2cn(C)c(C(=O)Nc3cc(C(=O)NCCC(=O)Nc4cn(C)c(C(=O)Nc5cc(C(=O)Nc6cc(C(=O)NCCCC(=O)Nc7cn(C)c(C(=O)Nc8cc(C(=O)Nc9cc(C(=O)NCCC(=O)Nc%10cn(C)c(C(=O)Nc%11cc(C(=O)Nc%12cc(C(=O)NCCC(=O)NCCCN(C)CCCNC(=S)Nc%13ccc%14c(c%13)C(=O)OC%14%13c%14ccc(O)cc%14Oc%14cc(O)ccc%14%13)n(C)c%12)n(C)c%11)n%10)n(C)c9)n(C)c8)n7)n(C)c6)n(C)c5)n4)n(C)c3)n2)n1` here?
A: Active

Q: Which Drug uptake [35] does the source give for `CC(=O)Nc1cn(C)c(C(=O)Nc2cn(C)c(C(=O)NCCOCCOCC(=O)Nc3cn(C)c(C(=O)Nc4cc(C(=O)Nc5cc(C(=O)NCCCC(=O)Nc6cn(C)c(C(=O)Nc7cc(C(=O)NCCOCCOCC(=O)Nc8cn(C)c(C(=O)Nc9cc(C(=O)Nc%10cc(C(=O)NCCC(=O)NCCCN(C)CCCNC(=S)Nc%11ccc%12c(c%11)C(=O)OC%12%11c%12ccc(O)cc%12Oc%12cc(O)ccc%12%11)n(C)c%10)n(C)c9)n8)n(C)c7)n6)n(C)c5)n(C)c4)n3)n2)n1` here?
A: Active

Q: Which results are given for `CC(=O)Nc1cn(C)c(C(=O)Nc2cn(C)c(C(=O)NCCOCCOCC(=O)Nc3cn(C)c(C(=O)Nc4cc(C(=O)Nc5cc(C(=O)NCCCC(=O)Nc6cn(C)c(C(=O)Nc7cc(C(=O)Nc8cc(C(=O)NCCC(=O)Nc9cn(C)c(C(=O)Nc%10cc(C(=O)Nc%11cc(C(=O)NCCC(=O)NCCCN(C)CCCN)n(C)c%11)n(C)c%10)n9)n(C)c8)n(C)c7)n6)n(C)c5)n(C)c4)n3)n2)n1`?
A: Ka [11]: 1 ×10⁵ /Ms; Kd [12]: 18 nM; solubility [13]: 12.2 mM (≈ 23.3 mg/mL); Kd [14]: 1.8 ×10⁻³ /s

Q: Which results are given for `CC(=O)Nc1cn(C)c(C(=O)Nc2cn(C)c(C(=O)Nc3cc(C(=O)NCCC(=O)Nc4cn(C)c(C(=O)Nc5cc(C(=O)Nc6cc(C(=O)NCCCC(=O)Nc7cn(C)c(C(=O)Nc8cc(C(=O)NCCOCCOCC(=O)Nc9cn(C)c(C(=O)Nc%10cc(C(=O)Nc%11cc(C(=O)NCCC(=O)NCCCN(C)CCCN)n(C)c%11)n(C)c%10)n9)n(C)c8)n7)n(C)c6)n(C)c5)n4)n(C)c3)n2)n1`?
A: Ka [11]: 1 ×10⁴ /Ms; Kd [12]: 250 nM; Kd [14]: 4.5 ×10⁻³ /s

Q: With `CC(=O)Nc1cn(C)c(C(=O)Nc2cn(C)c(C(=O)NCCC(=O)NCCC(=O)Nc3cn(C)c(C(=O)Nc4cc(C(=O)Nc5cc(C(=O)NCCCC(=O)Nc6cn(C)c(C(=O)Nc7cc(C(=O)Nc8cc(C(=O)NCCC(=O)Nc9cn(C)c(C(=O)Nc%10cc(C(=O)Nc%11cc(C(=O)NCCC(=O)NCCCN(C)CCCN)n(C)c%11)n(C)c%10)n9)n(C)c8)n(C)c7)n6)n(C)c5)n(C)c4)n3)n2)n1` as the compound, how does the Ka [11] read?
A: 1.3 ×10⁵ /Ms

Q: What about the Kd [12] of the same compound?
A: 15 nM

Q: What about the Kd [14] of the same compound?
A: 1.9 ×10⁻³ /s

Q: Which Ka [11] does the source give for `CC(=O)Nc1cn(C)c(C(=O)Nc2cn(C)c(C(=O)NCCOCCOCC(=O)Nc3cn(C)c(C(=O)Nc4cc(C(=O)Nc5cc(C(=O)NCCCC(=O)Nc6cn(C)c(C(=O)Nc7cc(C(=O)NCCOCCOCC(=O)Nc8cn(C)c(C(=O)Nc9cc(C(=O)Nc%10cc(C(=O)NCCC(=O)NCCCN(C)CCCN)n(C)c%10)n(C)c9)n8)n(C)c7)n6)n(C)c5)n(C)c4)n3)n2)n1` here?
A: 1.8 ×10⁴ /Ms

Q: What about the Kd [12] of the same compound?
A: 16 nM

Q: What about the solubility [13] of the same compound?
A: 13.9 mM (≈ 25.9 mg/mL)

Q: What about the Kd [14] of the same compound?
A: 3 ×10⁻⁴ /s

Q: Which Drug uptake [35] does the source give for `CC(=O)Nc1cn(C)c(C(=O)Nc2cn(C)c(C(=O)NCCOCCOCC(=O)Nc3cn(C)c(C(=O)Nc4cc(C(=O)Nc5cc(C(=O)NCCCC(=O)Nc6cn(C)c(C(=O)Nc7cc(C(=O)Nc8cc(C(=O)NCCC(=O)Nc9cn(C)c(C(=O)Nc%10cc(C(=O)Nc%11cc(C(=O)NCCC(=O)NCCCN(C)CCCNC(=S)Nc%12ccc%13c(c%12)C(=O)OC%13%12c%13ccc(O)cc%13Oc%13cc(O)ccc%13%12)n(C)c%11)n(C)c%10)n9)n(C)c8)n(C)c7)n6)n(C)c5)n(C)c4)n3)n2)n1` here?
A: Active
